The structures appear in SMILES notation.

Data set [1] deals with Novel coronavirus SARS-COV-2 Wk-521 strains (Wuhan strain). It counts as cell-based. The following applies: for antiviral effect compared with the preparation / other alkaloids: Wuhan strain, VeroE6/TMPRSS2 cells.
The next data set concerns VeroE6/TMPRSS2 cells. The class given is cell-based. The following applies: 24 hours, FIG. 2A-2E. The procedure:
VeroE6/TMPRSS2 cells were cultured at 37° C. in 5% of a CO2 atmosphere by using Dulbecco's Modified Eagle's Medium (DMEM, Life Technologies Corporation) added with 10% of a fetal bovine serum (FBS, Cell Culture Bioscience Corporation), 100 units/ml of penicillin, 100 μg/ml of streptomycin, 10 mM of HEPES (pH7.4) and 1 mg/ml of G418 disulfate (Nacalai Tesque, Inc.). In infection tests, it was changed to 2% of FBS and no G418 disulfate was added.
The Stephania cepharantha-derived alkaloid-containing preparation, Cepharanthine, Isotetrandrine, Cycleanine, or Berbamine were added to the medium of the VeroE6/TMPRSS2 cells and, and the cells cultured for 24 hours were fixed with 4% of paraformaldehyde, and nucleuses were stained with DAPI. Thereafter, the number of viable cells were measured using an ImageXpress Micro Confocal (Molecular Device, LLC).

In data set [2] the test system is human coronavirus OC43 strain. The following applies: early stage of infection in cells, MRC-5 human lung cells; cited from earlier work.
A further data set concerns SARS coronavirus. The following applies: cited from earlier work.

`COc1cc2c3cc1Oc1c(OC)c(OC)cc4c1[C@@H](Cc1ccc(O)c(c1)Oc1ccc(cc1)C[C@@H]3N(C)CC2)N(C)CC4` [Berbamine]: in data set [1], the “antiviral effect (number of viral RNA with increasing addition concentration)” value is “showed antiviral effects” and the “antiviral effect compared with the preparation / other alkaloids” value was “weak antiviral effect”. The “cytotoxic effect (number of viable cells with increasing addition concentration)” value with VeroE6/TMPRSS2 cells was “showed cytotoxic effects”.

For `COc1ccc2cc1Oc1ccc(cc1)C[C@H]1c3c(cc4c(c3Oc3cc5c(cc3OC)CCN(C)[C@@H]5C2)OCO4)CCN1C` [Cepharanthine], the “antiviral effects on the human coronavirus OC43 strain” value in data set [2] was “have antiviral effects”. Besides, in data set [1], the “antiviral effect (number of viral RNA with increasing addition concentration)” value was “showed antiviral effects” and the “antiviral effect compared with the preparation / other alkaloids” value is given as “comparable to the Stephania cepharantha-derived alkaloid-containing preparation”. Moreover, the “cytotoxic effect (number of viable cells with increasing addition concentration)” value in the data set on VeroE6/TMPRSS2 cells is “showed cytotoxic effects”. Moreover, the “antiviral effect against the SARS coronavirus” value in the data set with SARS coronavirus is listed as “has an antiviral effect”.

Regarding `COc1cc2c3c(c1OC)Oc1ccc(cc1)C[C@@H]1c4c(cc(OC)c(OC)c4Oc4ccc(cc4)C[C@H]3N(C)CC2)CCN1C` [Cycleanine], in data set [1], the “antiviral effect (number of viral RNA with increasing addition concentration)” value is listed as “showed antiviral effects” and the “antiviral effect compared with the preparation / other alkaloids” value is “comparable to the Stephania cepharantha-derived alkaloid-containing preparation”. The “cytotoxic effect (number of viable cells with increasing addition concentration)” value with VeroE6/TMPRSS2 cells is reported as “showed cytotoxic effects”.

Turning to `COc1ccc2cc1Oc1ccc(cc1)C[C@H]1c3cc(c(OC)cc3CCN1C)Oc1c(OC)c(OC)cc3c1[C@@H](C2)N(C)CC3` [Isotetrandrine], in data set [1], the “antiviral effect (number of viral RNA with increasing addition concentration)” value is listed as “showed antiviral effects” and the “antiviral effect compared with the preparation / other alkaloids” value is “comparable to the Stephania cepharantha-derived alkaloid-containing preparation”. Besides, the “cytotoxic effect (number of viable cells with increasing addition concentration)” value in the data set with VeroE6/TMPRSS2 cells is “showed cytotoxic effects”.
